The values that follow come from patent US5145844A, “Methods of using hydroxy-, alkoxy- and benzyloxy-substituted phospholipids to treat phospholipase A2 -mediated conditions and to alleviate pain” (Hoechst-Roussel Pharmaceuticals Incorporated, priority 1991, dated 1992).

Counter-ions that a name gives are not always drawn.

This experiment relates to phenyl-para-quinone induced writhing. The experiment can be described thus: phenyl-para-quinone writhing assay in mice (Analgesic PQW). It is filed as in vivo. Conditions: 20 mg/kg, s.c. From the text: The compounds of the present invention are also useful as analgesic agents due to their ability to alleviate pain in mammals. […] Exptl. Biol. Med., 95, 729 (1957)]. Presented in Table 2 is the analgesic effect of some of the compounds of the invention expressed as either the subcutaneous dose at which 50% of the phenyl-para-quinone induced writhing is inhibited in the animals, i.e., the ED50 value, or at the % decrease in writhing at a give dose.

For the compound `CCCCCCCCCC(CCCOP(=O)([O-])OCC[N+](C)(C)C)OCc1ccccc1` (stereo not shown) [4-Hydroxy-N,N,N-trimethyl-9-phenylmethoxy-3,5-dioxa-4-phosphaoctadecan-1-aminium, 4-oxide, hydroxide, inner salt monohydrate], the “Analgesic PQW % Inhibition of Writhing” value is reported as 83%. In the case of `C[N+](C)(C)CCOP(=O)([O-])OCCCC(O)CCCCCCCCCOc1ccccc1` (stereo not shown) [4,9-Dihydroxy-N,N,N-trimethyl-3,5-dioxa-18-phenoxy-4-phosphaoctadecan-1-aminium, 4-oxide, hydroxide, inner salt dihydrate] it was 48%.

Turning to `CCCCCCCCCCCCCCCC(O)CCCOP(=O)([O-])OCC[N+]1(C)CCCC1` (stereo not shown) [4,9-Dihydroxy-N-methyl-3,5-dioxa-4-phosphatetetracosan-1-pyrrolidinium, 4-oxide, hydroxide, inner salt 3.5 hydrate], the “Analgesic PQW % Inhibition of Writhing” value is listed as 62%. To `CCCCCCCCCCCCCCCC(CCCOP(=O)([O-])OCC[N+](C)(C)C)OCc1ccccc1` (stereo not shown) [4-Hydroxy-N,N,N-trimethyl-9-phenylmethoxy.3,5-dioxa-4-phosphatetracosan-1-aminium, 4-oxide, hydroxide, inner salt monohydrate] belongs 36%.
